# Reference: patent US12448394B2, “Heterocyclic pyrazole derivatives as type III receptor tyrosine kinase inhibitors” (DEVELOPMENT CENTER FOR BIOTECHNOLOGY, priority 2019, dated 2025)
# pIC50: −log10 of the molar value.
# Assays:
# [1] = tested on: HCC827 NSCLC cell with EGFR exon 19 deletion mutation; experiment: HCC827 cell proliferation assay (counter screen); format: cell-based, human; conditions: Homo sapiens, HCC827 cells, 72 hours treatment, CellTiter96, read-out: anti-proliferation activity HCC827 EGFR Exon19 del, IC50 ranking
# Summary of the method: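 HCC827 cells (EGFR exon 19 deletion) were seeded at 8000 cells/well in RPMI1640 with 10% FBS, then exposed to increasing compound concentrations for 72 h at 37 °C. Viability was read by CellTiter96 AQueous One (MTS), absorbance 490 nm after 2–4 h.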
# [2] = molecular target: T1, PDGFRα kinase (Homo sapiens, UniProt P16234); experiment: PDGFRα kinase assay (AlphaScreen); format: biochemical; conditions: read-out: Ranking of IC50 values, PDGFRα
# T1 construct: purchased SignalChem
# T1 sequence (P16234 24-1089): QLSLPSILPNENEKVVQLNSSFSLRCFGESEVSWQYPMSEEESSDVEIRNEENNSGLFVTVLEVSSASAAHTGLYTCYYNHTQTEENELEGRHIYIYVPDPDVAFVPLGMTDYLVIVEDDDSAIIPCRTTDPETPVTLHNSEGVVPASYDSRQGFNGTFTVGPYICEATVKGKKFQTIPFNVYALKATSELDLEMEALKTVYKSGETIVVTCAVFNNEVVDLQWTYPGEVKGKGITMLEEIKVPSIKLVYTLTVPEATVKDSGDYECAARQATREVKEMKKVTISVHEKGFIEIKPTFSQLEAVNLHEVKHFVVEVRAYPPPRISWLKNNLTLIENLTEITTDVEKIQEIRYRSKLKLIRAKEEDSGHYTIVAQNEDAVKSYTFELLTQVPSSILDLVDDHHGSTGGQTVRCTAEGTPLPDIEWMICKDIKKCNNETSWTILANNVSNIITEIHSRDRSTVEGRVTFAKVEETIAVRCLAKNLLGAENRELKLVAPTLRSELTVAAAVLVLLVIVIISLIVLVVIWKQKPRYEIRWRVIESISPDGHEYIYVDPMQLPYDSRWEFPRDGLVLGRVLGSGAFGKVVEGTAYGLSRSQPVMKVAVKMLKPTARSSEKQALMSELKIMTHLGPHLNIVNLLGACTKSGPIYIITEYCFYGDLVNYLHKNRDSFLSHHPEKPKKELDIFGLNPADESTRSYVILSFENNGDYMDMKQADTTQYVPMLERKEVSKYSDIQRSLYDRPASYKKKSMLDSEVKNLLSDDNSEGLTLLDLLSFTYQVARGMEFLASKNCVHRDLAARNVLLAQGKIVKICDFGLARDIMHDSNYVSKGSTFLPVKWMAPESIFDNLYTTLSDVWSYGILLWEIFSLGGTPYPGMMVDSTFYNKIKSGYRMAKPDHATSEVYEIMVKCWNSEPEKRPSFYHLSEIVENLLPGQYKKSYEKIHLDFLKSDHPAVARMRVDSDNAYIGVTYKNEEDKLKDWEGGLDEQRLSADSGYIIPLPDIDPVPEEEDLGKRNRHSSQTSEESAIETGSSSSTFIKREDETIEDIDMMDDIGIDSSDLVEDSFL
# Summary of the method: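 Recombinant PDGFRα (1.5 ng) phosphorylated biotinylated poly(Glu4:Tyr1) with 10 μM ATP in MOPS pH 7.0 with 10 mM MgCl2, 30 min at 30 °C, stopped with EDTA. Product detected by AlphaScreen; IC50 from serial dilutions run in duplicate.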
# [3] = tested on: A375 melanoma cell with BRAF V600E mutation; experiment: A375 cell proliferation assay (counter screen); format: cell-based, human; conditions: Homo sapiens, A-375, A375 cells, 72 hours treatment, CellTiter96, read-out: anti-proliferation activity A375 BRAF V600E, IC50 ranking
# Summary of the method: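 A375 cells (BRAF V600E) seeded at 2000 cells/well in DMEM with 10% FBS, settled overnight at 37° C, 5% CO2, then exposed to increasing compound concentrations for 72 hours. Viability read by MTS-type CellTiter96 AQueous reagent, absorbance at 490 nm after 2–4 hours.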
# [4] = tested on: MV4-11 human acute myeloid leukemia cell with FLT3-ITD mutation; experiment: MV4-11 cell proliferation assay (CellTiter 96); format: cell-based; conditions: Homo sapiens, MV4-11, 72 h, MV4-11 cells, 72 hours treatment, CellTiter96; read-out: anti-proliferation activity MV4-11 (FLT3-ITD), IC50 ranking
# Summary of the method: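 Cells seeded at 6500/well in IMDM with 10% heat-inactivated FBS, left overnight at 37 °C, 5% CO2, then exposed to increasing compound concentrations for 72 h. Viability read as absorbance at 490 nm after 2–4 h with CellTiter96 AQueous One reagent.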
# [5] = molecular target: T2, MET kinase (Homo sapiens, UniProt P08581); experiment: MET kinase assay (AlphaScreen, counter screen); format: biochemical; conditions: read-out: Ranking of IC50 values, MET
# T2 construct: purchased SignalChem
# T2 sequence (P08581 25-1390): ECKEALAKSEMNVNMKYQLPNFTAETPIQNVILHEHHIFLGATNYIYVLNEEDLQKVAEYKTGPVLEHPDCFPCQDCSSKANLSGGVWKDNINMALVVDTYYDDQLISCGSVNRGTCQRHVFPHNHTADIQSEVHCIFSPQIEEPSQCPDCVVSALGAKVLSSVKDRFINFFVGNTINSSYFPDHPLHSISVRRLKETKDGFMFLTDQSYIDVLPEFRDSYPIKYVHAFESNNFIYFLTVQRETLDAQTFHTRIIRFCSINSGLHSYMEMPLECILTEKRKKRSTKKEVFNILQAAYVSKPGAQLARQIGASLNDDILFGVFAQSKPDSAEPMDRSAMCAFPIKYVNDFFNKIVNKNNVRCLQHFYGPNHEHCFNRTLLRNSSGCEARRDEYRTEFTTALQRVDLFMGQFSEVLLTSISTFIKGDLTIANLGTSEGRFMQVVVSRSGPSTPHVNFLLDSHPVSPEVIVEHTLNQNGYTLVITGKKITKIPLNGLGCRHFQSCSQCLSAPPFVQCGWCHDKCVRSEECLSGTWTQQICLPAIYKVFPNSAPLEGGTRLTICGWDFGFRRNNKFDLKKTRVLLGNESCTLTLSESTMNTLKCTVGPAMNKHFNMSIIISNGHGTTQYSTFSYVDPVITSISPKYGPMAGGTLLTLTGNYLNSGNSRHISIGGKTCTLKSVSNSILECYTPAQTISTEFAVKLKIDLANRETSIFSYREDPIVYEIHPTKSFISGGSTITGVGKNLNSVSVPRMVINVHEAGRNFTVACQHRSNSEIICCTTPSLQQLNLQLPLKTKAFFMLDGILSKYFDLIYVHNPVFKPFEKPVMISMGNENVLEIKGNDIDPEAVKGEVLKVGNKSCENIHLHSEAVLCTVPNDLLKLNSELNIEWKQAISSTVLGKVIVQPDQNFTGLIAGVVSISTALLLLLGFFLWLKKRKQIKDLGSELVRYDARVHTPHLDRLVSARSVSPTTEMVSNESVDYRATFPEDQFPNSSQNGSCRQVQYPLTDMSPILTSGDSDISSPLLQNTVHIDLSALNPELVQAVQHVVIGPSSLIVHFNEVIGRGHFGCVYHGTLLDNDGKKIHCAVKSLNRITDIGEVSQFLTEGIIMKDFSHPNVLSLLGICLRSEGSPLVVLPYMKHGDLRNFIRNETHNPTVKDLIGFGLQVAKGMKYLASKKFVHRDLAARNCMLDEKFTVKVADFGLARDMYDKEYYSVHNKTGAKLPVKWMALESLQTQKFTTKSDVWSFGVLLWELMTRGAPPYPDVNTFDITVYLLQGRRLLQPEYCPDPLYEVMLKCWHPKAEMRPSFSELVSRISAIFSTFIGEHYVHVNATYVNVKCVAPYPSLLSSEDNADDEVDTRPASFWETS
# Summary of the method: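 Recombinant MET kinase (1 ng) phosphorylated biotinylated poly(Glu4:Tyr1) with […] ATP (so in the source) in MOPS pH 7.0 buffer with 10 mM MgCl2, 45 min at 30 °C, stopped with EDTA. Product read by AlphaScreen; IC50 from serial dilutions run in duplicate.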
# [6] = tested on: Molm-14 human acute myeloid leukemia cell with FLT3-ITD mutation; experiment: Molm-14 cell proliferation assay (CellTiter 96); format: cell-based; conditions: Homo sapiens; Molm-14 cells, 72 hours treatment, CellTiter96; read-out: anti-proliferation activity Molm-14 (FLT3-ITD), IC50 ranking
# Summary of the method: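 Molm-14 (FLT3-ITD AML) cells in RPMI 1640 with 10% heat-inactivated FBS were seeded at 25000 cells/well, incubated overnight at 37° C, 5% CO2, then treated with increasing compound concentrations for 72 hours. Viability was read as absorbance at 490 nm after 2˜4 hours with CellTiter96 AQueous One reagent.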
SMILES,pIC50 [1],pIC50 [2],pIC50 [3],pIC50 [4],pIC50 [5],pIC50 [6]
"Cn1ncc2ccc(-c3n[nH]c4c3Cc3sc(-c5ccc(CN6CCOCC6)cc5OC(F)(F)F)cc3-4)cc21 [Compound 90, 4-(4-(3-(1-methyl-1H-indazol-6-yl)-1,4-dihydro-thieno[2′,3′:4,5]cyclopenta [1,2-c]pyrazol-6-yl)-3-(trifluoromethoxy)benzyl) morpholine]",< 5.00,6.52 to 7.00,< 5.00,6.00 to 6.52,< 6.00,6.00 to 6.52
"Cn1ncc2ccc(-c3n[nH]c4c3Cc3sc(-c5ccc(N6CCOCC6)nc5)cc3-4)cc21 [Compound 82, 4-(5-(3-(1-methyl-1H-indazol-6-yl)-1,4-dihydro-thieno[2′,3′:4,5]cyclopenta [1,2-c]pyrazol-6-yl)pyridin-2-yl)morpholine]",< 5.00,6.52 to 7.00,5.00 to 6.00,6.52 to 7.00,< 6.00,6.00 to 6.52
"CN1CCN(Cc2ccc(-c3cc4c(s3)Cc3c(-c5ccc6cn[nH]c6c5)n[nH]c3-4)cc2)CC1 [Compound 83, 3-(1H-indazol-6-yl)-6-(4-((4-methylpiperazin-1-yl)methyl)phenyl)-1,4-dihydrothieno[2′,3′:4,5] cyclopenta[1,2-c]pyrazole]",< 5.00,8.00 to 9.00,< 5.00,> 7.52,6.00 to 6.52,> 7.52
"Cc1ccc(-c2cc3c(s2)Cc2c(-c4ccc5cn[nH]c5c4)n[nH]c2-3)cn1 [Compound 30, 3-(1H-indazol-6-yl)-6-(6-methylpyridin-3-yl)-1,4-dihydrothieno[2′,3′:4,5] cyclopenta[1,2-c]pyrazole]",< 5.00,8.00 to 9.00,< 5.00,7.00 to 7.52,< 6.00,7.00 to 7.52
"Cc1ccc(-c2cc3c(s2)Cc2c(-c4ccc5[nH]ncc5c4)n[nH]c2-3)cn1 [Compound 36, 3-(1H-indazol-5-yl)-6-(6-methylpyridin-3-yl)-1,4-dihydrothieno[2′,3′:4,5] cyclopenta[1,2-c]pyrazole]",< 5.00,8.00 to 9.00,< 5.00,> 7.52,< 6.00,7.00 to 7.52
"Cn1ncc2ccc(-c3n[nH]c4c3Cc3sc(-c5ccc(CN6CCOC6=O)cc5)cc3-4)cc21 [Compound 62, 3-(4-(3-(1-methyl-1H-indazol-6-yl)-1,4-dihydro-thieno[2′,3′:4,5]cyclopenta [1,2-c]pyrazol-6-yl)benzyl)oxazolidin-2-one]",< 5.00,7.52 to 8.00,< 5.00,> 7.52,< 6.00,7.00 to 7.52
"CN1CCN(Cc2ccc(-c3cc4c(s3)Cc3c(-c5ccc6cnn(C)c6c5)n[nH]c3-4)cc2)CC1 [Compound 84, 3-(1-methyl-1H-indazol-6-yl)-6-(4-((4-methylpiperazin-1-yl)methyl)phenyl)-1,4-dihydrothieno [2′,3′:4,5]cyclopenta [1,2-c]pyrazole]",< 5.00,8.00 to 9.00,< 5.00,> 7.52,< 6.00,> 7.52
"COc1ccc(-c2cc3c(s2)Cc2c(-c4ccc5cn[nH]c5c4)n[nH]c2-3)cn1 [Compound 2, 3-(1H-indazol-6-yl)-6-(6-methoxypyridin-3-yl)-1,4-dihydrothieno[2′,3′:4,5] cyclopenta[1,2-c]pyrazole]",< 5.00,7.52 to 8.00,< 5.00,7.00 to 7.52,< 6.00,7.00 to 7.52
"CN1CCN(c2cc(-c3cc4c(s3)Cc3c(-c5ccc6cnn(C)c6c5)n[nH]c3-4)ccn2)CC1 [Compound 87, 3-(1-methyl-1H-indazol-6-yl)-6-(2-(4-methyl-piperazin-1-yl)pyridin-4-yl)-1,4-dihydrothieno [2′,3′:4,5]cyclopenta [1,2-c]pyrazole]",< 5.00,8.00 to 9.00,< 5.00,7.00 to 7.52,6.00 to 6.52,6.00 to 6.52
"Cn1ncc2ccc(-c3n[nH]c4c3Cc3sc(-c5ccc(CN6CCNCC6=O)cc5)cc3-4)cc21 [Compound 101, 1-(4-(3-(1-methyl-1H-indazol-6-yl)-1,4-dihydro-thieno[2′,3′:4,5]cyclopenta [1,2-c]pyrazol-6-yl)benzyl)piperazin-2-one]",< 5.00,8.00 to 9.00,< 5.00,> 7.52,< 6.00,> 7.52
"Nc1ccc(-c2cc3c(s2)Cc2c(-c4ccc5[nH]ncc5c4)n[nH]c2-3)cn1 [Compound 40, 5-(3-(1H-indazol-5-yl)-1,4-dihydrothieno [2′,3′:4,5]cyclopenta [1,2-c]pyrazol-6-yl) pyridin-2-amine]",5.00 to 6.00,8.00 to 9.00,5.00 to 6.00,> 7.52,< 6.00,> 7.52
"Cc1n[nH]c2cc(-c3n[nH]c4c3Cc3sc(-c5ccc(CN6CCOCC6)cc5)cc3-4)ccc12 [Compound 81, 4-(4-(3-(3-methyl-1H-indazol-6-yl)-1,4-dihydro-thieno[2′,3′:4,5]cyclopenta [1,2-c]pyrazol-6-yl)benzyl)morpholine]",< 5.00,8.00 to 9.00,5.00 to 6.00,6.52 to 7.00,< 6.00,6.00 to 6.52
"Cn1ncc2ccc(-c3n[nH]c4c3Cc3sc(-c5ccnc(Cl)c5)cc3-4)cc21 [Compound 86, 6-(2-chloropyridin-4-yl)-3-(1-methyl-1H-indazol-6-yl)-1,4-dihydrothieno [2′,3′:4,5]cyclopenta [1,2-c]pyrazole]",< 5.00,7.52 to 8.00,< 5.00,7.00 to 7.52,< 6.00,6.52 to 7.00
"COc1ccc(-c2cc3c(s2)Cc2c(-c4ccc5cnn(C)c5c4)n[nH]c2-3)cn1 [Compound 4, 6-(6-methoxypyridin-3-yl)-3-(1-methyl-1H-indazol-6-yl)-1,4-dihydrothieno [2′,3′:4,5]cyclopenta[1,2-c] pyrazole]",< 5.00,7.52 to 8.00,< 5.00,6.52 to 7.00,< 6.00,6.52 to 7.00
"Cn1ncc2ccc(-c3n[nH]c4c3Cc3sc(-c5ccc(CN6CCOCC6)c(F)c5F)cc3-4)cc21 [Compound 88, 4-(2,3-difluoro-4-(3-(1-methyl-1H-indazol-6-yl)-1,4-dihydrothieno [2′,3′:4,5]cyclopenta [1,2-c]pyrazol-6-yl)benzyl)morpholine]",< 5.00,7.00 to 7.52,< 5.00,6.00 to 6.52,< 6.00,6.00 to 6.52
"Cn1ncc2ccc(-c3n[nH]c4c3Cc3sc(-c5ccc(N)nc5)cc3-4)cc21 [Compound 92, 5-(3-(1-methyl-1H-indazol-6-yl)-1,4-dihydro-thieno[2′,3′:4,5]cyclopenta [1,2-c]pyrazol-6-yl) pyridin-2-amine]",< 5.00,8.00 to 9.00,5.00 to 6.00,> 7.52,< 6.00,> 7.52
"Nc1ccc(-c2cc3c(s2)Cc2c(-c4ccc5cn[nH]c5c4)n[nH]c2-3)cn1 [Compound 3, 5-(3-(1H-indazol-6-yl)-1,4-dihydrothieno[2′,3′:4,5]cyclopenta[1,2-c]pyrazol-6-yl)pyridin-2-amine]",< 5.00,8.00 to 9.00,< 5.00,> 7.52,< 6.00,> 7.52
"CN1CCN(c2ccc(-c3cc4c(s3)Cc3c(-c5ccc6cnn(C)c6c5)n[nH]c3-4)cn2)CC1 [Compound 85, 3-(1-methyl-1H-indazol-6-yl)-6-(6-(4-methyl-piperazin-1-yl)pyridin-3-yl)-1,4-dihydrothieno [2′,3′:4,5]cyclopenta [1,2-c]pyrazole]",< 5.00,8.00 to 9.00,5.00 to 6.00,> 7.52,6.00 to 6.52,6.00 to 6.52
